CC50, EC50 and NA protein degradation data for one molecule are collected here from publication PMC10120310 (Cell Insight, 2022).

The nature of one data set: in vitro. The conditions noted are these: dog.
The next data set deals with H1N1 virus. Briefly: microbe, parasite or virus in culture. The data set is classed as cell-based. The note with it: Influenza A virus, H1N1, MDCK.
The target in another data set is influenza NA protein (Influenza A virus, UniProt P03470). The data set is classed as cell-based, influenza virus (WSN).
influenza NA protein, sequence (P03470 whole entry, looked up): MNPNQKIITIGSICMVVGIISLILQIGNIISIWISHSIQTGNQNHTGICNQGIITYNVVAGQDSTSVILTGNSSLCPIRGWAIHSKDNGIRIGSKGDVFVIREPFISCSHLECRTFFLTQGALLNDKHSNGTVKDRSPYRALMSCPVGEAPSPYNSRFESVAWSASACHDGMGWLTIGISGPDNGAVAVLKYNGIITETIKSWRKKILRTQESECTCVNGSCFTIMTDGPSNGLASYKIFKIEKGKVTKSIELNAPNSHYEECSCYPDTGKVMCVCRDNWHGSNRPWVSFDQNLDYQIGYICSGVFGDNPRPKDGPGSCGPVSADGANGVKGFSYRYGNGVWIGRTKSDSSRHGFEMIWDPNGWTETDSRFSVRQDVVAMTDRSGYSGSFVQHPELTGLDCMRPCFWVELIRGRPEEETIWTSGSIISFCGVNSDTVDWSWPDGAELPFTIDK

pEC50: −log10 of the molar value. Some results are limits rather than exact numbers.

For the molecule `CCOC(=O)C1=C[C@@H](OC(CC)CC)[C@H](NC(C)=O)[C@@H](N)C1` [OSP, oseltamivir phosphate], the CC50 in “in vitro” was over 50 µM. Besides, in the data set on H1N1 virus, the pEC50 is 6.44. For the same molecule, the NA protein degradation entry on influenza NA protein was “no degradation activity”.
